According to PubChem BioAssay (NCI):
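Each compound was tested at five concentrations against cells in 96-well plates for 48 hours. The concentration for full growth arrest is given as TGI.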

Experiments:
Assay in all cases: NCI-60 cell line screen, 48 h
[1] = test system: DLD-1 colon
[2] = test system: DMS 273 small cell lung
[3] = test system: HOP-18 NSCLC
[4] = test system: KM20L2 colon
[5] = test system: LXFL 529 NSCLC
[6] = test system: M19-MEL melanoma
[7] = test system: SNB-78 CNS
[8] = test system: XF 498 CNS
[9] = test system: DMS 114 small cell lung
[10] = test system: RXF-631 renal

Row | SMILES | TGI [1] | TGI [2] | TGI [3] | TGI [4] | TGI [5] | TGI [6] | TGI [7] | TGI [8] | TGI [9] | TGI [10]
1 | c1cc2nnsc2s1 | > 100 µM | > 100 µM | > 100 µM | > 100 µM | > 100 µM | > 100 µM | > 100 µM | > 100 µM |  | 
2 | CC(=O)OCCOCNC(=S)N/N=C/c1cc([N+](=O)[O-])ccc1O | > 100 µM | > 100 µM | > 100 µM | > 100 µM | > 100 µM | > 100 µM | > 100 µM | > 100 µM | > 100 µM | > 100 µM
3 | O=c1[nH]c(=O)n(C2CC(O)C(CO)O2)cc1C(F)(C(F)(F)F)C(F)(F)F (centres undefined) | > 100 µM | > 100 µM | > 100 µM | > 100 µM | > 100 µM | > 100 µM | > 100 µM | > 100 µM | > 100 µM | 
4 | COc1ccc2c(=O)cc(-c3ccc(OC)c(OC)c3OC)oc2c1 | > 100 µM |  |  | 77.3 µM | > 100 µM | > 100 µM |  | > 100 µM | > 100 µM | > 100 µM
5 | CN/C=C(\C(=O)c1ccc(OC)c(OC)c1)c1ccc(OC)cc1 | 31.7 µM | 21.7 µM | 20.9 µM |  | 30.2 µM | 34.3 µM |  | 33.2 µM | 46.8 µM | 32.5 µM
6 | CC(=O)Nc1ccc(-c2nnc(SCC(=O)Nc3cccc(Cl)c3)o2)cc1 | 28.3 µM | 62.4 µM | 25.5 µM | 31.4 µM | 24.8 µM | > 100 µM | > 100 µM |  | 6.07 µM | 
7 | COc1ccc(N2C(=O)C3c4[nH]c5ccccc5c4C4CC(C)(C)CC(C)(C)C4C3C2=O)cc1 (centres undefined) | > 100 µM | 23.8 µM | 36.5 µM | > 100 µM | 27.7 µM | 33.7 µM | 55.3 µM | 36.8 µM | 97.7 µM | 
8 | COC1(C)C(=O)N2C1N(C(=O)OC(C)(C)C)CC2(C)C (centres undefined) | > 100 µM | > 100 µM | > 100 µM | > 100 µM | > 100 µM | > 100 µM | > 100 µM |  | > 100 µM | 
9 | CCOc1cn(C2OC(CO)C(O)C2O)c(=O)[nH]c1=O (centres undefined) | > 100 µM | > 100 µM | > 100 µM | > 100 µM | > 100 µM | > 100 µM | > 100 µM |  | > 100 µM | 
10 | CC[C@]12C=CCN3CCC4(c5cc([C@@]6(C(=O)OC)CC7CN(CCc8c6[nH]c6ccccc86)C[C@@H]6CCCC[C@H]76)c(OC)cc5N(C)C4[C@](O)(C(=O)OC)C1OC(C)=O)[C@@H]32 (some centres undefined) | 13.8 µM |  |  |  | 1.71 µM | 16.3 µM | 19.9 µM | 3.79 µM | < 0.01 µM | 
11 | COC(=O)[C@@]1(C)C(=O)CC[C@@H]1C=O | > 100 µM |  |  | > 100 µM | > 100 µM | > 100 µM | > 100 µM | > 100 µM | > 100 µM | 
12 | CCOC(=O)C1=C(C)NC2=C(C(=O)N(c3ccccc3)C2c2ccccc2)C1c1ccccc1 (centres undefined) | 34.5 µM |  | 37.7 µM |  | 30.3 µM | 32.3 µM | 45.3 µM | 37.5 µM | 32.4 µM | 32.9 µM
13 | CC(=O)OCC1OC(OC2C(COC(C)=O)OC(Sc3ccccc3C)C(OC(C)=O)C2OC(C)=O)C(OC(C)=O)C(OC(C)=O)C1OC(C)=O (centres undefined) | > 100 µM | > 100 µM | > 100 µM | > 100 µM | > 100 µM | > 100 µM | > 100 µM |  | > 100 µM | 
